In patent US12195419B2, “Glutamine antagonists and uses thereof” (The Johns Hopkins University, priority 2017, dated 2025):
Like-named read-outs stand apart in the source and are kept apart here. Each block holds one compound with its values, some of them ahead of it.

Columns and labels:
[1] = Dog pharmacokinetic study of compound #2 (IV infusion or SC); assay type: in vivo; settings: intact #2 in plasma, 0.2 mg/kg DON equivalent, male beagle dog; for AUC(0-t): read-out: Intact compound AUC0-t
Method: The dog pharmacokinetic study was conducted in accordance with the guidelines recommended in Guide for the Care and Use of Laboratory Animals and was approved by the Absorption Systems (San Diego, CA) Institutional Animal Care and Use Committee. Compound #2 was administered to male beagle dogs (n=1/group) as a bolus subcutaneous dose or infused over 1 h at a dose of 0.2 mg/kg DON equivalent. Blood samples were collected from the jugular vein (˜1 mL) via direct venipuncture at 0 min, 5 min (IV only), 15 min, 1 h, 2 h, 4 h, 8 h, and 24 h, post dose, placed into sodium heparin tubes, and maintained on wet ice until processing. Blood samples were centrifuged at a temperature of 4° C., at 3000× g, for 5 minutes. Plasma was collected in tubes and flash frozen. Samples were stored in a freezer set to maintain −60° C. to −80° C. until bioanalysis as described previously (see, Rais et al., 2016; Nedelcovych et al., 2017).

[2] = test system: P493B lymphoma cells; assay: Human tumor cell to plasma partitioning assay, single time-point (compounds 1, 7, 12, 16 and DON); assay type: cell-based; settings: 20 μM; for DON release in plasma: human plasma containing P493B cells, 1 h incubation
Method: Compounds 1, 7, 12 and 16 were evaluated for their ability to be taken up in tumor cells and cleaved to give DON. The experimental conditions are described below.
(§1) Tumor cell to plasma partitioning assay was conducted in P493B lymphoma cells (obtained from Dr. Chi Dang, Abramson Cancer Center, University of Pennsylvania, Philadelphia, PA; (REF, Nature 458, 762-765, 2009). In brief, cells were grown in 150 cm^2 cell T-flasks (Falcon™, USA) with RPMI 1640, 1× L-glutamine medium (Corning™ Cellgro™, USA) supplemented with 10% (v/v) FBS (Gibco™, USA), and 1% streptomycin and gentamycin (Gibco™, USA). All cells were incubated at 37° C., in a humidified atmosphere with 5% CO2. The cell confluency was monitored visually using an Axiovert 25 optical microscope equipped with an 3CCD digital camera. Upon confluency, cell suspension was collected and centrifuged at 1000 rpm for 5 min at 25° C. to collect the cell pellet. The supernatant media was decanted, the cell pellet was re-suspended in 20 mL of DPBS (Gibco™, USA), and maintained at 37° C. in order to remove the media traces.
The cell count was determined using an automated cell counter (Bio-Rad, USA) following a 1:1 dilution of an aliquot with 0.4% trypan blue solution (Bio-Rad, USA). The cell suspension in DPBS was centrifuged at 1000 rpm for 5 min at 25° C. to collect the cell pellet. The supernatant DPBS was decanted and the cell pellets were resuspended in human plasma (Innovative Research, USA) to obtain a cell density of 10 million cells/mL of plasma. For analysis of cell partitioning cell-plasma suspension, 1 ml, was pre-incubated at 37° C. for 5 min, following which, compounds were spiked for a final concentration of 20 μM and re-incubated at 37° C. for 1 h. Following incubation, the cell suspension was centrifuged at 10000 rpm for 10 min at 4° C. Supernatant plasma obtained after centrifugation was collected and stored at −80° C. for intact compound and DON analysis. The cell pellet was washed once with ice cold DPBS, followed by centrifugation and stored at −80° C. for intact prodrug and/or DON analysis by LC-MS/MS.
For quantification of DON and intact compound, cell pellets were weighed and suspended in 50 μL of water. To the cell suspension, ice cold methanol with internal standards (losartan: 0.5 μM and glutamate D5: 10 μM) were added in a 5:1 ratio of solvent to cell suspension. The cell samples were vortexed, mixed for 30 sec and centrifuged at 10,000 rpm for 10 min at 4° C. For intact compound bioanalysis, 50 μL of the supernatant obtained after centrifugation was diluted with 50 μL water and transferred to a 250 μL polypropylene vial sealed with a Teflon cap. DON bioanalysis was performed following dabsyl chloride derivatization method with minor modifications (see, Rais et al., 2016; Nedelcovych et al., 2017). Briefly, 200 μL of the supernatant was collected in a separate tube and dried at 45° C. under vacuum for 1 h. To each tube, 50 μL of 0.2 M sodium bicarbonate buffer (pH 9.0) and 100 μL dabsyl chloride stock was added. […] The standard curve for DON quantification in the cell pellet was prepared using naïve P493B cells diluted with water to the equivalent ratio as that of sample.
Briefly, DON was analyzed on a Dionex ultra high-performance system consisting of an analytical pump, and an autosampler coupled with Q Exactive Focus orbitrap mass spectrometer (Thermo Fisher Scientific Inc., Waltham MA). […]

[3] = test system: P493B lymphoma cells; assay: Cell proliferation assay (CellTiter 96 AQueous); assay type: cell-based, human; settings: for EC50: Homo sapiens, 72 h incubation, read-out: EC50 (cell viability)
Method: The cell proliferation assay was performed using the CellTiter 96® AQueous one solution cell proliferation reagent following the manufacturers' instruction (Promega, USA). Briefly, P493B lymphoma cells were plated in 96 well plates at a density of 20,000 cells/well in a final volume of 100 μL growth media. Test compound stocks were made in DMSO and were added to cells in a 1:10 serial dilution with a final concentration of 0.2% DMSO. Cells were allowed to proliferate for 72 h in the presence of test compounds. Thereafter, 20 μL of CellTiter 96™ AQeous (Promega #3580) was added per well and incubated for 2 h. Absorbance was measured at 490 nm.
DON and compound 7 were incubated with P493B lymphoma cells for 72 h, and cell viability was measured.

[4] = test system: P493B tumor cells; assay: Time dependent tumor cell to plasma partitioning of compound 7; assay type: cell-based, human
Method: as §1
The cell count was determined using an automated cell counter (Bio-Rad, USA) following a 1:1 dilution of an aliquot with 0.4% trypan blue solution (Bio-Rad, USA). The cell suspension in DPBS was centrifuged at 1000 rpm for 5 min at 25° C. to collect the cell pellet. The supernatant DPBS was decanted and the cell pellets were resuspended in human plasma (Innovative Research, USA) to obtain a cell density of 10 million cells/mL of plasma. […]

[5] = Compound 7 dog pharmacokinetic study (SC); assay type: in vivo; settings: beagle dog plasma, actual dose 2.6 mg/kg (DON eq. 0.8 mg/kg)
Text: Compound 7 was administrated to a beagle dog subcutaneously. FIG. 4C is a line graph showing its plasma pharmacokinetics in the dog.

Cmax ([1]; IV infusion over 1 h): 6570 nM
Tmax ([1]; IV infusion over 1 h): 0.08 h
AUC(0-t) ([1]; IV infusion over 1 h): 7.45 µM·h
Cmax ([1]; SC bolus): 470 nM
Tmax ([1]; SC bolus): 4 h
AUC(0-t) ([1]; SC bolus): 2.6 µM·h
Compound: CC(=O)NCCCC[C@H](NC(=O)OCC1c2ccccc2-c2ccccc21)C(=O)N[C@@H](CCC(=O)C=[N+]=[N-])C(=O)OC(C)C [Compound 2, Isopropyl 2-(2-((((9H-fluoren-9-yl)methoxy)carbonyl)amino)-6-acet-amidohexanamido)-6-diazo-5-oxohexanoate]

DON release in plasma [2]: minimal DON release
Compound: CC(=O)NCCCC[C@H](NC(=O)[C@H](Cc1c[nH]c2ccccc12)NC(C)=O)C(=O)N[C@@H](CCC(=O)C=[N+]=[N-])C(=O)OC(C)C (stereo in doubt) [Compound 12, Isopropyl 2-(6-acetamido-2-(2-acetamido-3-(1H-indol-3-yl)propan-amido)hexanamido)-6-diazo-5-oxohexanoate]

Compound: [N-]=[N+]=CC(=O)CC[C@H](N)C(=O)O [DON, 6-diazo-5-oxo-L-norleucine, reference compound]
EC50 [3]: 10 ± 0.11 µM

Compound: CC(=O)NCCCC[C@H](NC(=O)OC(C)(C)C)C(=O)N[C@@H](CCC(=O)C=[N+]=[N-])C(=O)OC(C)C [Compound 1, Isopropyl 2-(6-acetamido-2-((tert-butoxycarbonyl)amino)-hexanamido)-6-diazo-5-oxohexanoate]
DON release in plasma [2]: minimal DON release

DON release in plasma [2]: minimal DON release
intact compound observed in tumor cells [4]: < 1%
AUC ([5]; N = 1, read-out: AUC Cpd 7): 2.1 µM·h
Cmax ([5]; N = 1, read-out: Cmax Cpd 7): 640 nM
EC50 [3]: 5 ± 0.12 µM
Compound: CC(=O)NCCCC[C@H](NC(=O)C12CC3CC(CC(C3)C1)C2)C(=O)N[C@@H](CCC(=O)C=[N+]=[N-])C(=O)OC(C)C [Compound 7]
improvement of tumor cell killing vs DON ([3]; 72 h, EC50 compared to DON): two-fold

DON release in plasma [2]: minimal DON release
DON release in tumor cells (tumor cell DON concentrations) ([2]; human plasma with 10 million P493B cells, 37° C., 1 h, compared to DON): minimal release
Compound: CC(=O)NCCCC[C@H](NC(=O)[C@@H]1Cc2ccccc2CN1C(C)=O)C(=O)N[C@@H](CCC(=O)C=[N+]=[N-])C(=O)OC(C)C (stereo in doubt) [Compound 16, Isopropyl 2-(6-acetamido-2-(2-acetyl-1,2,3,4-tetrahydroisoquinoline-3-carboxamido)hexanamido)-6-diazo-5-oxohexanoate]
